Among the test systems are 786-0; A498; CCRF-CEM; DLD-1; DMS-273; HCT-116; HCT-15; HOP-18; KM-20L2; LXFL 529; M14; NCI-H23; NCI-H460; SR; U-251; NCI-H226; SNB-78.
What all share (assay): NCI anticancer screen, dose series, 48 h

Here are results for five molecules from ChEMBL document CHEMBL1201862, “PubChem BioAssay data set” (2004).

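96-well plates; 48 h exposure; 5 concentrations. Endpoints by linear interpolation between flanking doses. Not reached: highest tested concentration assigned. At the GI50, growth is halved.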 Activity calls are given as the source filed them. Cut-off read from the data, not from the text of the source: active = GI50 up to about 1.1 µM and inactive = higher.

Turning to `CSc1nc2nc(C)c(C)nc2c(=O)[nH]1`, the GI50 in the experiment with 786-0, with A498, in the experiment with CCRF-CEM, in the experiment on DLD-1, with DMS-273 and in the experiment on HCT-116 was > 100 µM (inactive) each time. Besides, the GI50 is over 100 µM in the experiment on HCT-15; > 100 µM (inactive) in the experiment on HOP-18; > 100 µM (inactive) with KM-20L2; > 100 µM (inactive) in the experiment on LXFL 529; > 100 µM (inactive) in the experiment on M14; > 100 µM (inactive) with NCI-H23. The GI50 in the experiment on NCI-H460, in the experiment with SR and with U-251 was > 100 µM (inactive) in each case.

Turning to `CC(C)(C)c1ccc(C(O)c2ccc(C(C)(C)C)cc2)cc1`, the GI50 in the experiment on 786-0 is 15.5 µM (inactive); with A498 it was 18.7 µM (inactive); in the experiment with CCRF-CEM, 16.9 µM (inactive); in the experiment with DLD-1, 14.6 µM (inactive); in the experiment on DMS-273 it was 12.6 µM (inactive); with HCT-116, 12.1 µM (inactive). Further, the GI50 in the experiment with HCT-15 was 12.1 µM; with HOP-18, 17.5 µM (inactive); in the experiment on KM-20L2 it was 17.7 µM (inactive); in the experiment on LXFL 529, 15.5 µM (inactive); in the experiment on M14, 15 µM (inactive); in the experiment with NCI-H226 it was 4.72 µM (inactive). For the same molecule, the GI50 with NCI-H23 is 12.1 µM (inactive); in the experiment with NCI-H460 it was 12.8 µM (inactive); with SR, 23.9 µM (inactive); with U-251, 13.1 µM (inactive).

`O=C1NC2(CCCCC2)C2CCCCC(O)C12` (stereo not given): the GI50 with 786-0, with A498, in the experiment on CCRF-CEM, in the experiment with DLD-1, in the experiment with DMS-273 and in the experiment with HCT-116 was > 100 µM (inactive) throughout. Also, the GI50 in the experiment with HCT-15 was over 100 µM; in the experiment with KM-20L2, > 100 µM (inactive); in the experiment on LXFL 529, > 100 µM (inactive); in the experiment on NCI-H226 it was > 100 µM (inactive); in the experiment on NCI-H23 it was > 100 µM (inactive); in the experiment on NCI-H460 it was > 100 µM (inactive). The GI50 in the experiment with SNB-78, with SR and in the experiment on U-251 was > 100 µM (inactive) throughout.

On to `CC(C)C(=O)/C=C/c1ccc(Br)cc1`, for which the GI50 in the experiment on 786-0 was 11.2 µM (inactive); with A498, 14.5 µM (inactive); in the experiment on CCRF-CEM, 3.15 µM (inactive); in the experiment on DLD-1, 7.31 µM (inactive); in the experiment with DMS-273, 12.9 µM (inactive); in the experiment on HCT-116, 6.14 µM (inactive). The GI50 is 9.86 µM (inactive) in the experiment on KM-20L2; 16.1 µM (inactive) in the experiment with LXFL 529; 17.9 µM (inactive) in the experiment with M14; 17.7 µM (inactive) in the experiment with NCI-H23; 14.9 µM (inactive) in the experiment with NCI-H460; 27 µM (inactive) with SNB-78. Also, the GI50 in the experiment on SR is 7.28 µM (inactive); in the experiment with U-251 it was 10.9 µM (inactive).

In the case of `C=C1C(=O)O[C@@H]2C[C@@]3(C)[C@H](O)CCC(=C)[C@@H]3C[C@H]12` [ASPERILIN], the GI50 in the experiment with 786-0 is 9.66 µM (inactive); in the experiment with CCRF-CEM, 3.01 µM (inactive); in the experiment with DLD-1, 3.69 µM (inactive); in the experiment with DMS-273, 8.38 µM (inactive); with HCT-116, 4.86 µM (inactive); in the experiment on HCT-15, 11.3 µM. Moreover, the GI50 in the experiment on KM-20L2 was 7.53 µM (inactive); in the experiment with LXFL 529 it was 2.75 µM (inactive); in the experiment with M14, 3.31 µM (inactive); in the experiment on NCI-H226 it was 4.29 µM (inactive); in the experiment on NCI-H23 it was 11.4 µM (inactive); with NCI-H460 it was 6.14 µM (inactive). In addition, the GI50 in the experiment on SNB-78 was 6.04 µM (inactive); in the experiment on SR, 3.14 µM (inactive); in the experiment with U-251 it was 13.4 µM (inactive).
